Where two headings read alike, the source gives them in different places.
Legend:
PC-3 cells = test: iBH3, cytochrome c release in unprimed cells (BAK/BAX activator function); type: cell-based; settings: for peptide concentration leading to cytochrome c release in unprimed cells: PC-3, unprimed, iBH3, 25°C, 1 hr; for LogEC50 (best-fit value) / HillSlope (best-fit value) / Bottom (best-fit value) / Top (best-fit value): iBH3 fit PC-3, sigmoidal dose-response (variable slope); for LogEC50 (best-fit value): log of EC50, x axis Log [Peptide M]; for Bottom (best-fit value) / Top (best-fit value): fit of 4 replicates
Description: To test the possibility that FS1, FS2 or FS3 may directly activate BAK and BAX, we measured cytochrome c release in two ‘unprimed’ cell lines (PC-3 and SF295). Unprimed cells require BAK/BAX activators to release cytochrome c ([Certo et al., 2006]).
(§1) Cell line identities were confirmed by STR profiling.
Plates were incubated at 25°C for 1 hr.

Bcl-xL = target: T1, Bcl-xL (Homo sapiens, UniProt Q07817); test: Competition fluorescence polarization (anisotropy) with fluoresceinated BIM; type: binding
T1 construct: c-myc
T1 sequence (Q07817 whole entry): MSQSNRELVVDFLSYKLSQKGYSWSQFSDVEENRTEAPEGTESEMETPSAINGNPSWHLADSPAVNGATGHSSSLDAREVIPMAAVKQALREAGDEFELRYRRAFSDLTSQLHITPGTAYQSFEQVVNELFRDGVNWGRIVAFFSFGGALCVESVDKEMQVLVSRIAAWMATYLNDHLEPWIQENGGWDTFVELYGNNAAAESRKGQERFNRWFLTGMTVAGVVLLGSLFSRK
Description: (§2) Plates were mixed at 23°C for 3 hr. Plates were read again at 24 to check equilibration. Experiments were done in at least triplicate.

Bcl-w = target: T2, Bcl-w (Homo sapiens, UniProt Q92843); test: as above; type: binding
T2 construct: c-myc
T2 sequence (Q92843 1-193): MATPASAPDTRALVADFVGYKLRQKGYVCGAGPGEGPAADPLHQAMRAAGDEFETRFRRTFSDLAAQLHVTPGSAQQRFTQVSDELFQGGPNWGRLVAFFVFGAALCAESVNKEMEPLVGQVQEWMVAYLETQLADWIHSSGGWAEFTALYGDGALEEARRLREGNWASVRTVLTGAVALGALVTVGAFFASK
Description: as §2

Bcl-2 = target: T3, Bcl-2 (Homo sapiens, UniProt P10415); test: as above; type: binding
T3 construct: c-myc
T3 sequence (P10415 whole entry): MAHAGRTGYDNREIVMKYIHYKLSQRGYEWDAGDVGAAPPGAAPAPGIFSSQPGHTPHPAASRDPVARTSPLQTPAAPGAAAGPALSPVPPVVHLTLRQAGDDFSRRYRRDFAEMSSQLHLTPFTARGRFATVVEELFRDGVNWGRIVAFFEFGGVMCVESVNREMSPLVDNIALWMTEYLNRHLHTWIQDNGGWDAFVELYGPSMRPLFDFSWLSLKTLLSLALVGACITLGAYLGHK
Description: as §2

[1] = tested on: BCR-ABL-expressing B-lineage acute lymphoblastic leukemia cells dependent on Bfl-1; settings: for LogEC50 (best-fit value) / HillSlope (best-fit value) / Bottom (best-fit value) / Top (best-fit value): iBH3 fits Bfl-1, sigmoidal dose-response (variable slope); for LogEC50 (best-fit value): log of EC50, x axis Log [Peptide M]; for Bottom (best-fit value) / Top (best-fit value): fit of 3 replicates; for cytochrome c release pattern in iBH3: low concentrations, highly primed cells of known anti-apoptotic protein dependency
Description: (§3) As an additional test for on-pathway activity, we measured cytochrome c release in the same engineered cell lines in response to peptide treatment, using iBH3 profiling ([Ryan et al., 2016]).
(§4) The creation and characterization of the BCR-ABL-expressing B-lineage acute lymphoblastic leukemia suspension cell lines with engineered dependencies on human versions of anti-apoptotic genes is detailed in [Koss et al. (2016)]). Cells were grown in RPMI (Life Technologies, Carlsbad, CA) with 10% fetal bovine serum, 2 mM L-glutamine, 10 mL/L 100x Pen/Strep (Life Technologies # 15140122), 25 mM HEPES and 10 mL/L 100x NEAA (Life Technologies, 11140050). The adherent cell lines PC-3 (RRID: CVCL_0035) and SF295 (RRID: CVCL_1690) are from the NCI60 panel ([Lorenzi et al., 2009]) and were grown in RPMI (Life Technologies) with 10% fetal bovine serum, 2 mM L-glutamine and 10 mL/L 100x Pen/Strep (Life Technologies # 15140122 ). Cell line identities were confirmed by STR profiling. The Lookout Mycoplasma PCR detection kit (Sigma) was used to detect mycoplasma infection.
(§5) Cells were suspended in MEB buffer (150 mM mannitol, 50 mM KCl, 10 mM HEPES, 5 mM succinic acid, 20 μM EGTA, 20 μM EDTA, 0.1% BSA, final pH 7.4) at 0.5*10^6 cells/mL (adherent lines) or 2 *10^6 cells/mL (suspension lines). Cell suspension was added to a 384 non-binding well plate (10 μL/well) containing peptides at 2X final concentration in MEB with 20 μg/mL digitonin. Plates were incubated at 25°C for 1 hr. To terminate exposure, 10 μL of 4% formaldehyde in PBS was added to each well, plates were incubated for 10 min before addition of 10 μL N2 buffer (1.7M Tris, 1.25M glycine, pH 9.1) for 5 min. 10 μL of staining buffer (2% Tween20, 10% BSA, PBS) containing 10 μg/mL Hoechst 33342 and 1.25 μg/mL anti-cytochrome c Alexa647 conjugate (BioLegend clone 6H2.B4) was added to each well before sealing the plate and shaking overnight. The median fluorescence of the cytochrome c channel of Hoechst positive singlets was recorded by an IntelliCyt iQue Screener Plus. Cytochrome c release was determined by normalizing the median fluorescence intensity (MFI) data to positive control wells (Alamethicin) and negative control wells (DMSO) as follows: Cytochromecrelease=1−(MFIsample−MFIAlamethicin)/(MFIDMSO−MFIAlamethicin)

[2] = tested on: BCR-ABL-expressing B-lineage acute lymphoblastic leukemia cells dependent on Mcl-1; settings: iBH3 fits Mcl-1, sigmoidal dose-response (variable slope); for LogEC50 (best-fit value): log of EC50, x axis Log [Peptide M]; for Bottom (best-fit value) / Top (best-fit value): fit of 3 replicates
Description: as §3, §4, §5

[3] = tested on: BCR-ABL-expressing B-lineage acute lymphoblastic leukemia cells dependent on Bfl-1; test: BH3 profiling, mitochondrial depolarization (JC-1) in permeabilized cells; type: cell-based; set-up: key to Bottom (best-fit value) / Top (best-fit value): % depolarization, normalized to DMSO (0) and FCCP (100) controls; settings: for mitochondrial depolarization pattern in BH3 profiling: 100 nM peptide, four cell lines engineered to depend on Bcl-2, Bcl-xL, Mcl-1 or Bfl-1, JC-1; for HillSlope (best-fit value) / Bottom (best-fit value) / Top (best-fit value) / LogEC50 (best-fit value): BH3 profiling fits Bfl-1, sigmoidal dose-response (variable slope); for Bottom (best-fit value): constraint Bottom < 5; for Top (best-fit value): constraint Top > 78; for LogEC50 (best-fit value): x = Log [Peptide] M, 55-56 Y values analyzed
Description: as §1
Peptides were titrated by serial dilution in MEB buffer (150 mM Mannitol, 10 mM HEPES-KOH pH 7.5, 50 mM KCl, 0.02 mM EGTA, 0.02 mM EDTA, 0.1% BSA and 5 mM Succinate) containing 20 μg/mL oligomycin, 50 μg/mL digitonin, 2 μM JC-1 and 10 mM 2-mercaptoethanol in 384-well plates. Controls for no depolarization (1% DMSO) and complete depolarization with the mitochondrial oxidative phosphorylation uncoupler FCCP (20 μM) were included for data normalization. […] 15 μL of cell suspension was added to each well containing 15 μL of treatment solution. […] To produce percent depolarization, the area under the resultant curve was calculated and normalized to the assay controls. Peptide titration curves were fit to sigmoidal dose-response curves using Graphpad PRISM seven to obtain EC50 values.

[4] = competition FP source data, mean of three replicates, values above 5 μM are reported as > 5 μM in the figures, read-out: mean Ki (M) Bcl-xL
[5] = competition FP source data, replicate 1
[6] = competition FP source data, replicate 2
[7] = competition FP source data, replicate 3
[8] = competition FP source data, mean of three replicates, values above 5 μM are reported as > 5 μM in the figures, read-out: mean Ki (M) Bcl-w
[9] = competition FP, 50 nM c-myc-tagged receptor + 25 nM fluoresceinated BIM, Tris pH 7.8, 23°C, 3 hr, mean ± SD of three replicates, read-out: Ki (nM) Bcl-w
[10] = competition FP source data, mean of three replicates, values above 5 μM are reported as > 5 μM in the figures, read-out: mean Ki (M) Bcl-2

Substance | peptide concentration leading to cytochrome c release in unprimed cells (PC-3 cells) | Ki (Bcl-xL; [4]) | Ki (M) Bcl-xL (Bcl-xL; [5]) | Ki (M) Bcl-xL (Bcl-xL; [6]) | Ki (M) Bcl-xL (Bcl-xL; [7]) | Ki (Bcl-w; [8]) | Ki (M) Bcl-w (Bcl-w; [5]) | Ki (M) Bcl-w (Bcl-w; [6]) | Ki (M) Bcl-w (Bcl-w; [7]) | Ki (Bcl-2; [10]) | Ki (M) Bcl-2 (Bcl-2; [5]) | Ki (M) Bcl-2 (Bcl-2; [6]) | Ki (M) Bcl-2 (Bcl-2; [7]) | HillSlope (best-fit value) [1] | Bottom (best-fit value) [1] | Top (best-fit value) [1] | cytochrome c release pattern in iBH3 [1] | HillSlope (best-fit value) [2] | Bottom (best-fit value) [2] | Top (best-fit value) [2] | further results
Ac-QWVREIAAGLRLAADNVNAQLER-NH2 [FS1] | > 100 µM | 2.38e-06 M | 2.02e-06 M | 2.84e-06 M | 2.27e-06 M | 7.76e-06 M | 5.7e-06 M | 7.42e-06 M | 1.02e-05 M | 5.31e-06 M | 8.37e-06 M | 4.66e-06 M | 2.9e-06 M | 2.245 | 0.8808 | 0.9982 | selectively induced cytochrome c release only in Bfl-1 dependent cell lines | 1.721 | 0.09874 | 0.9023 | LogEC50 (best-fit value) (PC-3 cells): ~ -3.754; HillSlope (best-fit value) (PC-3 cells): ~ -10.78; Bottom (best-fit value) (PC-3 cells): ~ -63.64; Top (best-fit value) (PC-3 cells): 0.1; Ki (Bcl-w; [9]): > 5e-06 M; Ki (Bcl-2; competition FP, 50 nM c-myc-tagged receptor + 25 nM fluoresceinated BIM, Tris pH 7.8, 23°C, 3 hr, mean ± SD of three replicates, read-out: Ki (nM) Bcl-2): > 5e-06 M; LogEC50 (best-fit value) [1]: -6.521; LogEC50 (best-fit value) [2]: -4.595; mitochondrial depolarization pattern in BH3 profiling [3]: promoted depolarization only in Bfl-1 dependent cells; HillSlope (best-fit value) [3]: 0.8486; Bottom (best-fit value) [3]: 1.325; Top (best-fit value) [3]: 81.21; LogEC50 (best-fit value) [3]: -7.974
Ac-QWVREIAAGLRRAADDVNAQVER-NH2 [FS2] | > 100 µM | 7.07e-06 M | 6.54e-06 M | 1e-05 M | 4.66e-06 M | 8.27e-06 M | 1.14e-05 M | 6.45e-06 M | 6.96e-06 M | 2.41e-06 M | 2.55e-06 M | 2.86e-06 M | 1.82e-06 M | 0.6008 | ~ -2.146 | 1.01 | selectively induced cytochrome c release only in Bfl-1 dependent cell lines | 1.725 | 0.1056 | 1.316 | Ki (Bcl-xL; competition FP, 50 nM c-myc-tagged receptor + 25 nM fluoresceinated BIM, Tris pH 7.8, 23°C, 3 hr, mean ± SD of three replicates, read-out: Ki (nM) Bcl-xL): > 5e-06 M; Ki (Bcl-w; [9]): > 5e-06 M; LogEC50 (best-fit value) [1]: ~ -9.301; LogEC50 (best-fit value) [2]: -4.058; mitochondrial depolarization pattern in BH3 profiling [3]: promoted depolarization only in Bfl-1 dependent cells; HillSlope (best-fit value) [3]: 0.7703; Bottom (best-fit value) [3]: 0.97; Top (best-fit value) [3]: 84.17; LogEC50 (best-fit value) [3]: -7.679
Ac-QWIREIAAGLRRFADILNAQVER-NH2 [FS3] | 30 to 100 µM | 3.23e-07 M | 2.75e-07 M | 4.23e-07 M | 2.72e-07 M | 7.67e-07 M | 7.55e-07 M | 8.54e-07 M | 6.93e-07 M | 2.06e-06 M | 1.85e-06 M | 2.41e-06 M | 1.93e-06 M | 0.832 | ~ -46.09 | 0.9862 | selectively induced cytochrome c release only in Bfl-1 dependent cell lines | 4.529 | 0.1359 | 0.9781 | LogEC50 (best-fit value) (PC-3 cells): -4.638; HillSlope (best-fit value) (PC-3 cells): 2.225; Bottom (best-fit value) (PC-3 cells): 0.07242; Top (best-fit value) (PC-3 cells): 1.062; mitochondrial depolarization pattern in BH3 profiling [3]: promoted depolarization only in Bfl-1 dependent cells; HillSlope (best-fit value) [3]: 0.653; Bottom (best-fit value) [3]: 0.004086; Top (best-fit value) [3]: 83.65; LogEC50 (best-fit value) [3]: -8.381; specificity in BH3 profiling ([3]; four engineered cell lines, FS3 statement holds for JC-1 BH3 profiling and iBH3): significant cross reactivity at 30 μM
